{"source": "patent US20230331674A1", "about": "(priority 2020, published 2023)", "key": {"Plasma stability": {"test": "Plasma stability", "format": "in vitro ADME", "conditions": "human, 37° C., 2 h incubation, read-out: In vitro half-life in human plasma", "protocol": "Propoxycaine and propantheline were tested as reference compounds simultaneously in each assay. The incubation was performed in a 37° C. water bath for 2 h. An aliquot of the incubation mixture was transferred to acetonitrile at 0, 0.5, 1, 1.5 and 2 h, respectively. Samples were then mixed and centrifuged. Supernatants were used for HPLC-MS/MS analysis using selected reaction monitoring, and peak areas were recorded for each analyte. The HPLC conditions consisted of a binary LC pump with autosampler, a C18 column (2×20 mm), and gradient elution. The area of precursor compound remaining after each time points relative to the amount remaining at time zero, expressed as percent, is calculated. Subsequently, the half-life (t1/2) was estimated from the slope of the initial linear range of the logarithmic curve of the compound remaining (%) versus time, assuming first order kinetics."}, "[1]": {"test": "Plasma protein binding, equilibrium dialysis", "format": "in vitro ADME", "conditions": "pH 7.4, human plasma, 37° C.", "protocol": "The equilibrium dialysis technique was used to separate the fraction of the bound to human plasma protein. The assay was performed in a 96-well format in a dialysis block constructed from Teflon to minimize the unspecific binding (Banker M. J. et al. J. Pharm. Sci. 2003, 92, 967-974). Plasma from human was used as the default protein containing matrix. […] Acebutolol, quinidine and warfarin were tested in each assay as reference compounds, which yield protein binding that represent low, medium and high bindings to human plasma proteins, respectively. The dialysate compartment was loaded with the phosphate buffered saline (PBS, pH 7.4), and the sample side was loaded with equal volume of the spiked protein matrix. The dialysis plate was then sealed and incubated at 37° C. for 4 h. A control sample (n=2) was prepared from the spiked protein matrix in the same manner as the assay sample (without dialysis). The control sample served as the basis for the recovery determination. After the incubation, samples were taken from each compartment, diluted with phosphate buffer followed by addition of acetonitrile and centrifugation. The supernatants were then used for HPLC-MS/MS analysis using selected reaction monitoring. […]\nThe recovery determination serves as an indicator of reliability of the calculated protein binding value. […]"}, "[2]": {"test": "Metabolic stability in cryopreserved hepatocytes", "format": "in vitro ADME", "conditions": "both sexes, pH 7.3, human hepatocytes", "protocol": "Cryopreserved hepatocytes (mixed gender and pool of 10 or more) were thawed, washed, and resuspended in Krebs-Heinslet buffer (pH 7.3). […] The reaction was stopped by adding acetonitrile into the incubation mixture. Samples were then mixed, transferred completely to another 96-well plate, and centrifuged. Supernatants were used for HPLC-MS/MS analysis. As reference substances, four compounds were tested in each assay. Propranolol is relatively stable, whereas flurazepam, naloxone and 7-hydroxy-4-trifluoromethylcoumarin (HFC) are readily metabolized in human hepatocytes. In the HPLC-MS/MS analysis peak areas corresponding to the test compounds were recorded. Metabolic stability, expressed as percentage of the parent compound remaining, was calculated by comparing the peak area of the compound at the time point relative to that at time 0. The half-life (t1/2) was estimated from the slope of the initial linear range of the logarithmic curve of the compound remaining (%) versus time, assuming first order kinetics. The apparent intrinsic clearance (Clint in μL/min/million cells) was calculated from the half-life according to the following formula:\nClint=0.693/(t1/2×million cells/μL) (5)."}, "[3]": {"biological_target": "mAChE (murine acetylcholinesterase) (Mus musculus (Mouse), UniProt P21836)", "sequence (P21836 32-614)": "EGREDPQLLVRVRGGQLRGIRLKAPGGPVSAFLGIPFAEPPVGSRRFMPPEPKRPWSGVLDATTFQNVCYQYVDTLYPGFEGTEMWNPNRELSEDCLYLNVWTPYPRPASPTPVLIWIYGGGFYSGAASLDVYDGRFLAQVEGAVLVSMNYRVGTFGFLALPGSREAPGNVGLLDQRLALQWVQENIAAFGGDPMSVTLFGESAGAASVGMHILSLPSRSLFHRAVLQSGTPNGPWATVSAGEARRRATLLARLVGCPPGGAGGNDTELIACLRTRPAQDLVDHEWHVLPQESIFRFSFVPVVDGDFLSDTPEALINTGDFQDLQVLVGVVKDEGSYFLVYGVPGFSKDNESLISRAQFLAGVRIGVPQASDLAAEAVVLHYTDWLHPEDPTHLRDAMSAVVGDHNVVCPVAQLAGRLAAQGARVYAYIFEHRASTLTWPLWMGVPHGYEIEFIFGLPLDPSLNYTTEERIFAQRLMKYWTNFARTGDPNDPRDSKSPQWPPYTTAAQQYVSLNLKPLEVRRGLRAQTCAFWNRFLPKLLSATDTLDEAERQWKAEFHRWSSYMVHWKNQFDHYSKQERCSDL", "format": "biochemical", "conditions": "screening at 10 μM; n.i. = no inhibiton", "description": "To determine the blank value (b), phosphate-buffered solution replaced the enzyme solution."}, "Caco-2 cell monolayers": {"tested_on": "Caco-2 cell monolayers", "test": "in vitro", "protocol": "(§1) They were grown on Transwell® culture inserts with a polycarbonate membrane (diameter, 12 mm; pore size, 0.4 μm). 50,000 cells/filter membranes were used for seeding and the medium was changed every two days. At day 18, transepithelial electrical resistance (TEER) was measured for each filter with Caco-2 cell monolayers. […] The samples were acidified by dilution with the same volume of 0.01 M HCl before fluorescence measurements.\n(§2) Ringer buffer with 10 mM d-glucose or 10 mM mannitol on apical and basolateral side of the tissue, respectively, was used as an incubation saline. […] The experiment started by the addition of stock solutions of (±)-N-((1-benzylpiperidin-3-yl)methyl)-N-(2-methoxyethyl)naphthalene-2-sulfonamide hydrochloride and fluorescein in the donor compartment to provide final 100 μM donor concentration of (±)-N-((1-benzylpiperidin-3-yl)methyl)-N-(2-methoxyethyl)naphthalene-2-sulfonamide and 20 μM fluorescein. The stock solutions were added either to the apical or to the basolateral compartment to obtain bidirectional permeability measurements. Six samples were withdrawn in 20 min intervals. Each time 300 μl was taken from the 1500 μL basolateral acceptor compartment and 100 μL from the 500 μL apical acceptor compartment. These volumes were immediately replaced by the appropriate fresh incubation saline. The concentrations of (±)-N-((1-benzylpiperidin-3-yl)methyl)-N-(2-methoxyethyl)naphthalene-2-sulfonamide in the samples were determined by HPLC-UV immediately after the experiment."}, "in vitro": {"test": "in vitro", "conditions": "human, Caco-2", "protocol": "as §1, §2"}, "[4]": {"tested_on": "SH-SY5Y cells treated with Aβ(1-42)", "test": "Neuroprotective effect against Aβ(1-42) cytotoxicity, propidium iodide flow cytometry", "format": "cell-based, human", "conditions": "5 μM Aβ(1-42), 48 h", "protocol": "SH—SY5Y cells were seeded into a 24-well culture plate (1.2×10^5/well) and next day, treated as described above. After 48 h treatment, cells were washed with pre-warmed PBS and further stained with PI solution (30 μM) for 15 min at 37° C. Cells were then analyzed for cytotoxicity by flow cytometry on FACS Calibur (BD Bioscience, San Jose, CA, USA). The percentage of PI positive cells (PI^pos) was evaluated using FlowJo software (Ashland, OR, USA) and results are presented as a relative fold increase of PI^pos corresponding vehicle treatment (DMSO control)."}, "HepG2 cells": {"tested_on": "HepG2 cells", "test": "Metabolic activity assay (cytotoxicity) in HepG2 cells", "conditions": "24 h", "protocol": "HepG2 cells (1×10^4 cells/well) were treated for 24 h with the appropriate concentrations of the compounds of interest or the corresponding vehicle (control cells), in triplicates in 96-well plates. The metabolic activities were determined using the CellTiter 96 Aqueous One Solution Cell Proliferation Assay (Promega, WI/USA), according to the manufacturer instructions."}}, "data": [{"molecule": "COCCN(CC1CCCN(Cc2ccccc2)C1)S(=O)(=O)c1ccc2ccccc2c1", "note": "(racemic) [(±)-N-((1-benzylpiperidin-3-yl)methyl)-N-(2-methoxyethyl)naphthalene-2-sulfonamide]", "values": [{"measurement": "half-life at 1 μM", "setting": "Plasma stability", "result": "> 120", "unit": "min"}, {"measurement": "fraction unbound at 4 h, 10 μM", "setting": "[1]", "result": 0.04}, {"measurement": "half-life at 1 μM", "setting": "[2]; 0.7 million viable cells per mL, read-out: In vitro half-life in cryopreserved hepatocytes", "result": 54, "unit": "min"}, {"measurement": "hepatocyte CLint at 1 μM", "setting": "[2]; read-out: Hepatocyte clearance (Clint)", "result": 18.2, "unit": "µL/min/1e6 cells"}, {"measurement": "IC50 + STD (μM) or % inhibition at 10 μM mAChE", "setting": "[3]", "result": "n.i."}, {"measurement": "Permeability class according to the biopharmaceutical classification system", "setting": "Caco-2 cell monolayers", "result": "high"}, {"measurement": "Papp A→B at 120 min, 100 μM", "setting": "in vitro", "result": "30 ± 10.7", "unit": "×10⁻⁶ cm/s"}, {"measurement": "Papp B→A at 120 min, 100 μM", "setting": "in vitro", "result": "29.1 ± 2.9", "unit": "×10⁻⁶ cm/s"}, {"measurement": "Neuroprotective effect against Aβ(1-42) toxicity", "setting": "[4]; compound 1-10 μM", "result": "clear dose-response neuroprotective effect"}, {"measurement": "Effect on Aβ(1-42)-induced cell death", "setting": "[4]; compound at 10 μM", "result": "reversed Aβ(1-42)-induced cell death"}, {"measurement": "LD50", "setting": "HepG2 cells", "result": 58.67, "unit": "µM"}]}]}
